PubChem BioAssay AID1259407 (Chemical Carcinogenesis Research Information System (CCRIS), 2018)
Calls of active or inactive are those of the source. How the calls were made is not given here.

System: CCRIS mutagenicity, Ames/micronucleus/aberration tests
Assay: CCRIS mutagenicity studies

Measured: mutagenic call

CCCCC(CC)COC(=O)c1ccccc1C(=O)OCC(CC)CCCC (stereo not drawn)
inactive: End Point: IN VITRO MICRONUCLEUS, Test System: V79 CELLS, Metabolic Activation: NONE inactive; negative | End Point: IN VITRO MICRONUCLEUS, Test System: V79 CELLS, Metabolic Activation: RAT, LIVER, S-9, AROCLOR 1254 inactive; negative | End Point: IN VIVO MICRONUCLEUS, Test System: HEPATOCYTES, Species: RAT, Strain/Sex: FISHER 344 OR SD/MALE, Route: ORAL OR IP inactive; negative | End Point: IN VIVO MICRONUCLEUS, Test System: PERIPHERAL BLOOD RETICULOCYTES, Species: RAT, Strain/Sex: FISHER 344 OR SD/MALE, Route: ORAL OR IP inactive; negative | Test System: AMES SALMONELLA TYPHIMURIUM, Strain/Indicator: TA97, Metabolic Activation: HAMSTER LIVER S-9, AROCLOR 1254 (10 OR 30%), Method: PREINCUBATION inactive; negative | Test System: AMES SALMONELLA TYPHIMURIUM, Strain/Indicator: TA97, Metabolic Activation: NONE, Method: PREINCUBATION inactive; negative | Test System: AMES SALMONELLA TYPHIMURIUM, Strain/Indicator: TA97, Metabolic Activation: NONE, Method: STANDARD PLATE inactive; negative | Test System: AMES SALMONELLA TYPHIMURIUM, Strain/Indicator: TA97, Metabolic Activation: RAT LIVER S-9, AROCLOR 1254 (10 OR 30%), Method: PREINCUBATION inactive; negative | Test System: AMES SALMONELLA TYPHIMURIUM, Strain/Indicator: TA97, Metabolic Activation: S-9, Method: STANDARD PLATE inactive; negative | Test System: AMES SALMONELLA TYPHIMURIUM, Strain/Indicator: TA98, Metabolic Activation: HAMSTER LIVER S-9, AROCLOR 1254 (10 OR 30%), Method: PREINCUBATION inactive; negative | Test System: AMES SALMONELLA TYPHIMURIUM, Strain/Indicator: TA98, Metabolic Activation: HAMSTER, LIVER, S-9, AROCLOR 1254 (10%), Method: PREINCUBATION inactive; negative | Test System: AMES SALMONELLA TYPHIMURIUM, Strain/Indicator: TA98, Metabolic Activation: NONE, Method: FLUCTUATION (MICROTITER) inactive; negative | Test System: AMES SALMONELLA TYPHIMURIUM, Strain/Indicator: TA98, Metabolic Activation: NONE, Method: STANDARD PLATE inactive; negative | Test System: AMES SALMONELLA TYPHIMURIUM, Strain/Indicator: TA98, Metabolic Activation: RAT LIVER S-9, AROCLOR 1254 (10 OR 30%), Method: PREINCUBATION inactive; negative | Test System: AMES SALMONELLA TYPHIMURIUM, Strain/Indicator: TA98, Metabolic Activation: RAT LIVER S-9, AROCLOR 1254, Method: FLUCTUATION (MICROTITER) inactive; negative | Test System: AMES SALMONELLA TYPHIMURIUM, Strain/Indicator: TA98, Metabolic Activation: RAT LIVER S-9, PHENOBARBITAL AND BETA-NAPHTHOFLAVONE, Method: PREINCUBATION inactive; negative | Test System: AMES SALMONELLA TYPHIMURIUM, Strain/Indicator: TA98, Metabolic Activation: RAT, LIVER, S-9, AROCLOR 1254 (10%), Method: PREINCUBATION inactive; negative | Test System: AMES SALMONELLA TYPHIMURIUM, Strain/Indicator: TA98, Metabolic Activation: RAT, LIVER, S-9, AROCLOR 1254, Method: STANDARD PLATE inactive; negative | Test System: AMES SALMONELLA TYPHIMURIUM, Strain/Indicator: TA98, Metabolic Activation: S-9, Method: STANDARD PLATE inactive; negative | Test System: AMES SALMONELLA TYPHIMURIUM, Strain/Indicator: TA100, Metabolic Activation: HAMSTER LIVER S-9, AROCLOR 1254 (10 OR 30%), Method: PREINCUBATION inactive; negative | Test System: AMES SALMONELLA TYPHIMURIUM, Strain/Indicator: TA100, Metabolic Activation: HAMSTER, LIVER, S-9, AROCLOR 1254 (10%), Method: PREINCUBATION inactive; negative | Test System: AMES SALMONELLA TYPHIMURIUM, Strain/Indicator: TA100, Metabolic Activation: NONE, Method: STANDARD PLATE inactive; negative | Test System: AMES SALMONELLA TYPHIMURIUM, Strain/Indicator: TA100, Metabolic Activation: RAT LIVER S-9, AROCLOR 1254 (10 OR 30%), Method: PREINCUBATION inactive; negative | Test System: AMES SALMONELLA TYPHIMURIUM, Strain/Indicator: TA100, Metabolic Activation: RAT LIVER S-9, PHENOBARBITAL AND BETA-NAPHTHOFLAVONE, Method: PREINCUBATION inactive; negative | Test System: AMES SALMONELLA TYPHIMURIUM, Strain/Indicator: TA100, Metabolic Activation: RAT, LIVER, S-9, AROCLOR 1254 (10%), Method: PREINCUBATION inactive; negative | Test System: AMES SALMONELLA TYPHIMURIUM, Strain/Indicator: TA100, Metabolic Activation: RAT, LIVER, S-9, AROCLOR 1254, Method: STANDARD PLATE inactive; negative | Test System: AMES SALMONELLA TYPHIMURIUM, Strain/Indicator: TA100, Metabolic Activation: S-9, Method: STANDARD PLATE inactive; negative | Test System: AMES SALMONELLA TYPHIMURIUM, Strain/Indicator: TA102, Metabolic Activation: CO631 CELLS, Method: STANDARD PLATE inactive; negative | Test System: AMES SALMONELLA TYPHIMURIUM, Strain/Indicator: TA102, Metabolic Activation: NONE, Method: STANDARD PLATE inactive; negative | Test System: AMES SALMONELLA TYPHIMURIUM, Strain/Indicator: TA102, Metabolic Activation: PANCREATIN, Method: STANDARD PLATE inactive; negative | Test System: AMES SALMONELLA TYPHIMURIUM, Strain/Indicator: TA102, Metabolic Activation: PORCINE, PANCREAS, LIPASES, Method: STANDARD PLATE inactive; negative | Test System: AMES SALMONELLA TYPHIMURIUM, Strain/Indicator: TA102, Metabolic Activation: RAT HEPATOCYTES, Method: STANDARD PLATE inactive; negative | Test System: AMES SALMONELLA TYPHIMURIUM, Strain/Indicator: TA102, Metabolic Activation: RAT LIVER S-9, PHENOBARBITAL AND 5,6-BENZOFLAVONE, Method: STANDARD PLATE inactive; negative | Test System: AMES SALMONELLA TYPHIMURIUM, Strain/Indicator: TA102, Metabolic Activation: S-9, Method: STANDARD PLATE inactive; negative | Test System: AMES SALMONELLA TYPHIMURIUM, Strain/Indicator: TA1535, Metabolic Activation: HAMSTER LIVER S-9, AROCLOR 1254 (10 OR 30%), Method: PREINCUBATION inactive; negative | Test System: AMES SALMONELLA TYPHIMURIUM, Strain/Indicator: TA1535, Metabolic Activation: HAMSTER, LIVER, S-9, AROCLOR 1254 (10%), Method: PREINCUBATION inactive; negative | Test System: AMES SALMONELLA TYPHIMURIUM, Strain/Indicator: TA1535, Metabolic Activation: NONE, Method: STANDARD PLATE inactive; negative | Test System: AMES SALMONELLA TYPHIMURIUM, Strain/Indicator: TA1535, Metabolic Activation: RAT LIVER S-9, AROCLOR 1254 (10 OR 30%), Method: PREINCUBATION inactive; negative
